Experimental data taken from ChEMBL document CHEMBL5120852, “New Aβ(1-42) ligands from anti-amyloid antibodies: Design, synthesis, and structural interaction” (Eur J Med Chem, 2022).
The source made the active and inactive calls. The calls are words filed in the database; no cut-off is given here. Where a SMILES comes first, the peptide text is derived from it. [ ]: non-standard residue; d: D form. Aib = CC(C)(N)C(=O)O

Assays:
[1] = target: T1, Amyloid-beta precursor protein (Homo sapiens, UniProt P05067); assay: Inhibition of 15N-labelled amyloid beta (1 to 42) (unknown origin) expressed in Escherichia coli BL21 (DE3)-pLysS cells fibrillization assessed as decrease in indicator of fibrillization (DoF) by AFM microscopic analysis
SH-SY5Y = assay: Neuroprotective activity against amyloid beta (1 to 42)-induced cytotoxicity in human SH-SY5Y cells assessed as increase in cell viability at 0.000001 to 10 mM preincubated with compound for 48 hrs followed by stimulation with amyloid beta(1 to 42) and measured after 18 hrs by MTT assay; format: functional, cell-based; conditions: dose lower 1 nM, dose upper 10.0 mM
[2] = target: T1, Amyloid-beta precursor protein; assay: Disaggregation of 15N-labelled amyloid beta (1 to 42) (unknown origin) expressed in Escherichia coli BL21 (DE3)-pLysS cells in pH 7.4 buffer assessed as absence of bundle of fibrils at 1:20 protein to compound molar ratio incubated for 192 hrs by AFM microscopic analysis
[3] = target: T1, Amyloid-beta precursor protein; assay: Binding affinity to 5R to 22E residues of 15N-labelled amyloid beta (1 to 42) (unknown origin) expressed in Escherichia coli BL21 (DE3)-pLysS cells assessed as chemical shift perturbation by measuring dissociation constant by Chemical shift mapping NMR analysis
[4] = target: T1, Amyloid-beta precursor protein; assay: Disaggregation of 15N-labelled amyloid beta (1 to 42) (unknown origin) expressed in Escherichia coli BL21 (DE3)-pLysS cells in pH 7.4 buffer assessed as absence of mature fibrils at 1:20 protein to compound molar ratio incubated for 192 hrs by AFM microscopic analysis
[5] = target: T1, Amyloid-beta precursor protein; assay: Inhibition of 15N-labelled amyloid beta (1 to 42) (unknown origin) expressed in Escherichia coli BL21 (DE3)-pLysS cells fibrillization assessed as absence of mature fibrils at 1:20 protein to compound molar ratio incubated for 192 hrs by AFM microscopic analysis
[6] = target: T1, Amyloid-beta precursor protein; assay: Inhibition of 15N-labelled amyloid beta (1 to 42) (unknown origin) expressed in Escherichia coli BL21 (DE3)-pLysS cells fibrillization assessed as absence of observable number of protofibrils at 1:20 protein to compound molar ratio incubated for 192 hrs by AFM microscopic analysis

T1 sequence (P05067 whole entry): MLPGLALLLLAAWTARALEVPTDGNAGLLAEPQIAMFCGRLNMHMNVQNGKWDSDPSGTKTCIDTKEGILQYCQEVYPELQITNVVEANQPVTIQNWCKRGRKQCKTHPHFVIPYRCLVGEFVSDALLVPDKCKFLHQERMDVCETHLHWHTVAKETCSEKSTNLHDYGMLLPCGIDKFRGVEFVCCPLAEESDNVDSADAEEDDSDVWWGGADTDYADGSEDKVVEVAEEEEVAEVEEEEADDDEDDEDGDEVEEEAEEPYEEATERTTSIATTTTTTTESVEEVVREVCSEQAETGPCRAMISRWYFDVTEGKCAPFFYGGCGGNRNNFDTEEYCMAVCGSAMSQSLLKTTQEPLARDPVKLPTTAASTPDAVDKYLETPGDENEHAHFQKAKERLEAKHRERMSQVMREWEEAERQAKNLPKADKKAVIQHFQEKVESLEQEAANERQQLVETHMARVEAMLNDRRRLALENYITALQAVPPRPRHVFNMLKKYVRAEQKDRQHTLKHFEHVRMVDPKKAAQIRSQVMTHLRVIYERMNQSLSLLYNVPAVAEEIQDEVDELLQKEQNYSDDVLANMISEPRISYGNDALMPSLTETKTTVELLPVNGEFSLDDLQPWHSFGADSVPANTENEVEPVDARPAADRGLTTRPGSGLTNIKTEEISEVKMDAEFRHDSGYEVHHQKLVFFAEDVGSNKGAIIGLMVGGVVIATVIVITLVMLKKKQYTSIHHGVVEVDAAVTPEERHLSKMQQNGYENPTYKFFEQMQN

Compound | Activity [1] | Activity (SH-SY5Y) | Activity [2] | Kd [3] | Activity [4] | inhibition [5] | inhibition [6]
CC(C)(NC(=O)[C@@H](N)Cc1c[nH]c2ccccc12)C(=O)N[C@@H](Cc1c[nH]cn1)C(=O)O (H-Trp-[Aib]-His-OH) | 0.03 | Active | Active | 5.74 mM | Active | Active | Active
H-SYSTPGK-OH | 0.06 | Active | Active | 0.65 mM | Active | Active | Active
